Tested on: LPS induced TNF release
Test: Lipopolysaccharide-Activated THP1 Cell TNF Production Assay
Type: cell-based
Settings: Homo sapiens, THP-1
Protocol: Lipopolysaccharide-Activated THP1 Cell TNF Production Assay
THP1 cells are resuspended in fresh THP1 media (RPMI 1640, 10% heat-inactivated FBS, 1×PGS, 1×NEAA, plus 30 μM βME) at a concentration of 1E6/mL. One hundred microliters of cells per well are plated in a polystyrene 96-well tissue culture. One microgram per mL of bacterial LPS is prepared in THP1 media and is transferred to the wells. Test compounds are dissolved in 100% DMSO and are serially diluted 3 fold in a polypropylene 96-well microtiter plate (drug plate). HI control and LO control wells contain only DMSO. One microliter of test compound from the drug plate followed by 10 μL of LPS are transferred to the cell plate. The treated cells are induced to synthesize and secrete TNF-α at 37° C. for 3 h. Forty microliters of conditioned media are transferred to a 96-well polypropylene plate containing 110 μL of ECL buffer (50 mM Tris-HCl pH 8.0, 100 mM NaCl, 0.05% Tween 20, 0.05% NaN3 and 1%FBS) supplemented with 0.44 nM MAB610 monoclonal Ab (R&D Systems), 0.34 nM ruthenylated AF210NA polyclonal Ab (R&D Systems) and 44 μg/mL sheep anti-mouse M280 Dynabeads (Dynal). After a 2 h incubation at room temperature with shaking, the reaction is read on the ECL M8 Instrument (IGEN Inc.). A low voltage is applied to the ruthenylated TNF-α immune complexes, which in the presence of TPA (the active component in Origlo), results in a cyclical redox reaction generating light at […]. The amount of secreted TNF-α in the presence of compound compared with that in the presence of DMSO vehicle alone (HI control) is calculated using the formula: % control (POC)=(cpd−average LO)/(average HI−average LO)*100. Data (consisting of POC and inhibitor concentration in μM) is fitted to a 4-parameter equation (y=A+((B−A)/(1+((x/C)^D))), where A is the minimum y (POC) value, B is the maximum y (POC), C is the x (cpd concentration) at the point of inflection and D is the slope factor) using a Levenburg-Marquardt non-linear regression algorithm.

Compound	IC50 [µM]
C[C@H](Cc1cccc(CN)c1)Nc1nccc(N2CCCn3c2nc(-c2ccccc2)cc3=O)n1 [9-{2-[2-(3-aminomethyl-phenyl)-1(R)-methyl-ethylamino]-pyrimidin-4-yl}-2-phenyl-6,7,8,9-tetrahydro-pyrimido[1,2-a]pyrimidin-4-one]	≤ 20
Cc1ccc(-c2cc(=O)n3c(n2)N(c2ccnc(N[C@@H](C)c4ccccc4)n2)CCC3)cc1C [Example 1, 2-(3,4-Dimethyl-phenyl)-9-[2-(1(S)-phenyl-ethylamino) -pyrimidin-4-yl]-6,7,8,9-tetrahydro-pyrimido[1,2-a]pyrimidin-4-one]	≤ 20
C[C@H](Nc1nccc(N2CCCn3c2nc(-c2ccccc2F)cc3=O)n1)c1ccccc1 [Example 2, 2-(2-fluorophenyl)-9-[2-(1(S)-phenyl-ethylamino)-pyrimidin-4-yl]-6,7,8,9-tetrahydro-pyrimido[1,2-a]pyrimidin-4-one]	≤ 20
C[C@H](Nc1nccc(N2CCCn3c2nc(-c2ccccc2C(F)(F)F)cc3=O)n1)c1ccccc1 [Example 3, 2-(2-trifluoromethylphenyl)-9-[2-(1(S)-phenyl-ethylamino) -pyrimidin-4-yl]-6,7,8,9-tetrahydro-pyrimido[1,2-a]pyrimidin-4-one]	≤ 20
C[C@H](Nc1nccc(N2CCCn3c2nc(-c2ccc(F)cc2)cc3=O)n1)c1ccccc1 [Example 4, 2-(4-fluorophenyl)-9-[2-(1(S)-phenyl-ethylamino)-pyrimidin-4-yl]-6,7,8,9-tetrahydro-pyrimido[1,2-a]pyrimidin-4-one]	≤ 20
COc1ccc(-c2cc(=O)n3c(n2)N(c2ccnc(N[C@@H](C)c4ccccc4)n2)CCC3)cc1 [Example 5, 2-(4-methoxyphenyl)-9-[2-(1(S)-phenyl-ethylamino)-pyrimidin-4-yl]-6,7,8,9-tetrahydro-pyrimido[1,2-a]pyrimidin-4-one]	≤ 20
C[C@H](Nc1nccc(N2CCCn3c2nc(-c2cccc([N+](=O)[O-])c2)cc3=O)n1)c1ccccc1 [Example 6, 2-(3-nitrophenyl)-9-[2-(1(S)-phenyl-ethylamino)-pyrimidin-4-yl]-6,7,8,9-tetrahydro-pyrimido[1,2-a]pyrimidin-4-one]	≤ 20
C[C@H](Nc1nccc(N2CCCn3c2nc(-c2cccc(N)c2)cc3=O)n1)c1ccccc1 [Example 7, 2-(3-aminophenyl)-9-[2-(1(S)-phenyl-ethylamino)-pyrimidin-4-yl]-6,7,8,9-tetrahydro-pyrimido[1,2-a]pyrimidin-4-one]	≤ 20
C[C@H](Nc1nccc(N2CCCn3c2nc(C(C)(C)C)cc3=O)n1)c1ccccc1 [Example 11, 2-(tert-butyl)-9-[2-(1(S)-phenyl-ethylamino)-pyrimidin-4-yl]-6,7,8,9-tetrahydro-pyrimido[1,2-a]pyrimidin-4-one]	≤ 20
CCc1cccc(-c2cc(=O)n3c(n2)N(c2ccnc(N[C@@H](C)c4ccccc4)n2)CCC3)c1 [Example 12, 2-(3-ethylphenyl)-9-[2-(1(S)-phenyl-ethylamino)-pyrimidin-4-yl]-6,7,8,9-tetrahydro-pyrimido[1,2-a]pyrimidin-4-one]	≤ 20
C[C@H](Nc1nccc(N2CCCn3c2nc(-c2ccc(Cl)c(Cl)c2)cc3=O)n1)c1ccccc1 [Example 13, 2-(3,4-dichlorophenyl)-9-[2-(1(S)-phenyl-ethylamino) -pyrimidin-4-yl]-6,7,8,9-tetrahydro-pyrimido[1,2-a]pyrimidin-4-one]	≤ 20
CC(Cc1cccc(CN)c1)Nc1nccc(N2CCCn3c2nc(-c2ccccc2)c(N)c3=O)n1 (centres unmarked) [Example 14, 3-Amino-9-{2-[2-(3-aminomethyl-phenyl)-1-methyl-ethylamino]-pyrimidin-4-yl}-2-phenyl-6,7,8,9-tetrahydro-pyrimido[1,2-a]pyrimidin-4-one]	≤ 20

Second part, the compound after the results:

IC50 [µM]	Compound
≤ 20	O=c1c([N+](=O)[O-])c(-c2ccccc2)nc2n1CCCN2c1ccnc(NCCc2ccccc2)n1 [Example 15, 3-Nitro-9-(2-phenethylamino-pyrimidin-4-yl)-2-phenyl-6,7,8,9-tetrahydro-pyrimido[1,2-a]pyrimidin-4-one]
≤ 20	Nc1c(-c2ccccc2)nc2n(c1=O)CCCN2c1ccnc(NCCc2ccccc2)n1 [Example 18, 3-Amino-9-(2-phenethylamino-pyrimidin-4-yl) -2-phenyl-6,7,8,9-tetrahydro-pyrimido[1,2-a]pyrimidin-4-one]
≤ 20	CC(C)NCc1cccc(CC(C)Nc2nccc(N3CCCn4c3nc(-c3ccccc3)cc4=O)n2)c1 (centres unmarked) [Example 19, 9-(2-{2-[3-(Isopropylamino-methyl)-phenyl]-1-methyl-ethylamino}-pyrimidin-4-yl) -2-phenyl-6,7,8,9-tetrahydro-pyrimido[1,2-a]pyrimidin-4-one]
≤ 20	O=c1cc(-c2ccccc2)nc2n1CCCN2c1ccnc(NCc2ccccc2)n1 [Example 29, 9-(2-{2-(benzyl)amino}-pyrimidin-4-yl)-2-phenyl-6,7,8,9-tetrahydro-pyrimido[1,2-a]pyrimidin-4-one]
≤ 20	Nc1nccc(N2CCCn3c2nc(-c2ccccc2)cc3=O)n1 [Example 38, 9-(2-{2-amino}-pyrimidin-4-yl)-2-phenyl-6,7,8,9-tetrahydro-pyrimido[1,2-a]pyrimidin-4-one]
≤ 20	CC(Cc1cccc(CN)c1)Nc1nccc(N2CCCn3c2nc(-c2ccccc2)cc3=O)n1 (centres unmarked) [Example 44, 9-{2-[2-(3-Aminomethyl-phenyl)-1-methyl-ethylamino]-pyrimidin-4-yl}-2-phenyl-6,7,8,9-tetrahydro-pyrimido[1,2-a]pyrimidin-4-one]
≤ 20	CC(Cc1cccc(CO)c1)Nc1nccc(N2CCCn3c2nc(-c2ccccc2)cc3=O)n1 (centres unmarked) [Example 47, 9-{2-[2-(3-Hydroxymethyl-phenyl)-1-methyl-ethylamino]-pyrimidin-4-yl}-2-phenyl-6,7,8,9-tetrahydro-pyrimido[1,2-a]pyrimidin-4-one]
≤ 20	C[C@@H](Cc1cccc(CN)c1)Nc1nccc(N2CCCn3c2nc(-c2ccccc2)cc3=O)n1 [Example 49, 9-{2-[2-(3-Aminomethyl-phenyl)-1(S)-methyl-ethylamino]-pyrimidin-4-yl}-2-phenyl-6,7,8,9-tetrahydro-pyrimido[1,2-a]pyrimidin-4-one]
≤ 20	CC(C)NCCC1CN(c2ccnc(NCCc3ccccc3)n2)c2nc(-c3ccccc3)cc(=O)n2C1 (centres unmarked) [Example 50, 7-(2-Isopropylamino-ethyl)-9-(2-phenethylamino-pyrimidin-4-yl) -2-phenyl-6,7,8,9-tetrahydro-pyrimido[1,2-a]pyrimidin-4-one]
≤ 20	NCCC1CN(c2ccnc(NCCc3ccccc3)n2)c2nc(-c3ccccc3)cc(=O)n2C1 (centres unmarked) [Example 51, 7-(2-Amino-ethyl)-9-(2-phenethylamino-pyrimidin-4-yl)-2-phenyl-6,7,8,9-tetrahydro-pyrimido[1,2-a]pyrimidin-4-one]
≤ 20	O=C(NCCC1CN(c2ccnc(NCCc3ccccc3)n2)c2nc(-c3ccccc3)cc(=O)n2C1)OCc1ccccc1 (centres unmarked) [Example 52, {2-[6-Oxo-1-(2-phenethylamino-pyrimidin-4-yl)-8-phenyl-1,3,4,6-tetrahydro-2H-pyrimido[1,2-a]pyrimidin-3-yl]-ethyl}-carbamic acid benzyl ester]
